The record followed here is the ASAP Discovery antiviral challenge data (2025).

In brackets after ≈: the same amount, converted by molar mass. Several values for one entry are separate records, joined by “and”; a condition that tells them apart may be missing. Equal entries are not always repeated.

The conditions of series [1]: mdck_mdr1.
Experiment in series [2]: not given
The source holds these as a separate data set.

The conditions of series [3]: human; liver_microsomes.
For series [4] the following is noted: mouse; liver_microsomes.

The compound `CC[C@H](Cc1nnn[nH]1)c1ccc(NC(=O)c2cc(Cl)cc(NC(=O)OCc3ccccc3)c2)cc1` (racemic) came in with a kinetic solubility of 60 µM (≈ 30.3 µg/mL). In addition, the apparent permeability (Papp) in series [1] is 2.79 ×10⁻⁶ cm/s. For the same compound, in series [2], the logD was found to be 4.1. The intrinsic clearance (microsomal CLint) in series [3] came to 24.9 µL/min/mg.

As for `c1ccc2sc(C3CCN(Cc4c[nH]c5ccccc45)CC3)nc2c1`, the kinetic solubility worked out at 119 µM (≈ 41.4 µg/mL). In series [1], this compound yielded a Papp of 5.82 ×10⁻⁶ cm/s. This compound had a microsomal CLint in series [3] of 38.1 µL/min/mg.

In turn, `O=C(O)c1cc(Cl)ccc1NS(=O)(=O)c1ccc(-c2ccccc2Cl)cc1` displayed a kinetic solubility of 397 µM (≈ 168 µg/mL). Besides, the apparent permeability (Papp) in series [1] was 7.59 ×10⁻⁶ cm/s. Also, in series [2], the pH-dependent lipophilicity (logD) turned out to be 3.6. For the same compound, the microsomal CLint in series [3] worked out at 343 µL/min/mg.

Compound `NCc1cccc(NC(=O)[C@H](NC(=O)OCc2ccccc2)C2CCCCC2)c1` (racemic) came in with a Papp in series [1] of 1.58 ×10⁻⁶ cm/s. Besides, the logD in series [2] was 2. This compound also yielded a microsomal CLint in series [3] of 5.29 µL/min/mg.

On to `CC(C)[C@H](Nc1ncnc2[nH]c(-c3cnn(CC(=O)N(C)C)c3)cc12)c1ccc2c(c1)OCCO2` (single isomer, unassigned), for which, in series [1], the Papp was 2.05 ×10⁻⁶ cm/s and 1.62 ×10⁻⁶ cm/s. Besides, in series [2], the logD was 2.9 and 3. In series [4], the microsomal CLint was 35 µL/min/mg and 45 µL/min/mg.

Regarding `CCOc1cccc(-c2ccc(S(=O)(=O)Nc3ccc(Cl)cc3C(=O)O)cc2)c1`, the solubility (kinetic) came out at 392 µM (≈ 169 µg/mL). The same compound yielded an apparent permeability coefficient (Papp) in series [1] of 6.22 ×10⁻⁶ cm/s. In series [2], this compound had a logD of 2.8. Besides, in series [3], the intrinsic metabolic clearance (microsomal CLint) was determined as 119 µL/min/mg.

In the case of `O=C(Nc1cc(Cl)cc([C@H]2CN(Cc3ccccc3)C[C@@H]2c2cccc(-c3nn[nH]n3)c2)c1)OCc1ccccc1` (racemic), the apparent permeability (Papp) in series [1] is 0.2 ×10⁻⁶ cm/s. Also, the log distribution coefficient (logD) in series [2] was 4.1. This compound also returned a microsomal CLint in series [3] of 46.3 µL/min/mg.

The compound `Cc1cc(OCc2ccccc2)ccc1NS(=O)(=O)c1ccc(Cl)cc1C(=O)O` displayed a kinetic solubility of 394 µM (≈ 170 µg/mL). The Papp in series [1] was 4.61 ×10⁻⁶ cm/s. Also, the log distribution coefficient (logD) in series [2] was determined as 2.7. The compound further gave a microsomal CLint in series [3] of 22.3 µL/min/mg.

The compound `C=CC[C@H](Nc1cccc(-c2nn[nH]n2)c1)c1cc(Cl)cc(NC(=O)OCc2ccccc2)c1` (racemic) had a solubility (kinetic) of 332 µM (≈ 158 µg/mL). This compound also gave an apparent permeability coefficient (Papp) in series [1] of 1.24 ×10⁻⁶ cm/s. The pH-dependent lipophilicity (logD) in series [2] worked out at 4.1. For the same compound, the intrinsic metabolic clearance (microsomal CLint) in series [3] worked out at 65.5 µL/min/mg.

In turn, `CC(C)NC(=O)[C@H](Nc1ccc2c(c1)CNC2)c1cc(Cl)cc2[nH]c(-c3ccccc3)nc12` (racemic) yielded a kinetic solubility of 154 µM (≈ 70.8 µg/mL). Further, the Papp in series [1] came out at 0.432 ×10⁻⁶ cm/s. In series [2], this compound had a logD of 2.9. In series [3], this compound came in with an intrinsic metabolic clearance (microsomal CLint) of 23.2 µL/min/mg.

For `O=C(NCC(F)(F)F)c1cc(Cl)c(F)cc1NS(=O)(=O)c1ccc(Oc2ccccc2Cl)cc1`, the solubility (kinetic) came out at 14 µM (≈ 7.52 µg/mL). In series [1], this compound returned an apparent permeability coefficient (Papp) of 2.4 ×10⁻⁶ cm/s. Besides, the intrinsic clearance (microsomal CLint) in series [3] came out at 70 µL/min/mg.

`Nc1nc(-c2ccccc2)nc2[nH]nc(Nc3ccc(C(F)(F)F)cc3)c12` registered a kinetic solubility of 2 µM (≈ 0.741 µg/mL). The compound further had an apparent permeability coefficient (Papp) in series [1] of 1.76 ×10⁻⁶ cm/s. For the same compound, the microsomal CLint in series [4] came out at 11.2 µL/min/mg.

As for `N#C[C@H](Nc1ccc2c(c1)CNC2)c1cc(Cl)cc2[nH]ncc12` (racemic), the kinetic solubility turned out to be 297 µM (≈ 96.2 µg/mL). Further, in series [1], the apparent permeability (Papp) is 1.1 ×10⁻⁶ cm/s. In series [2], the logD turned out to be 0.9. In series [3], the microsomal CLint is 10.3 µL/min/mg.

The compound `CNC(=O)[C@H](Nc1cc(Cl)cc(NC(=O)OCc2ccccc2)c1)c1cccc(-c2nn[nH]n2)c1` (racemic) came in with a kinetic solubility of 333 µM (≈ 164 µg/mL). In series [1], this compound registered an apparent permeability coefficient (Papp) of 1.39 ×10⁻⁶ cm/s. The compound further came in with a logD in series [2] of 2.2. Besides, the microsomal CLint in series [3] is 21.3 µL/min/mg.

In turn, `NCc1cccc(NC(=O)C[C@H](NC(=O)OCc2ccccc2)c2ccc(OCc3ccccc3)c(Br)c2)c1` (racemic) showed a solubility (kinetic) of 21 µM (≈ 12.4 µg/mL). Further, in series [1], the apparent permeability (Papp) stood at 0.783 ×10⁻⁶ cm/s. Moreover, the intrinsic metabolic clearance (microsomal CLint) in series [3] came out at 12.4 µL/min/mg.

Turning to `CC(C)[C@H](Nc1ncnc2[nH]c(C(=O)N[C@H]3CCN(C)C3)cc12)c1ccc2c(c1)S(=O)(=O)CCC2` (single isomer, unassigned), the kinetic solubility was 396 µM and 392 µM. Also, the Papp in series [1] was 0.175 ×10⁻⁶ cm/s and 0.325 ×10⁻⁶ cm/s. Further, the log distribution coefficient (logD) in series [2] was 1.4 and 1.5. The microsomal CLint in series [3] was 11 µL/min/mg and 26 µL/min/mg.

`NCc1cccc(NC(=O)C[C@H](NC(=O)OCc2ccccc2)c2ccc(OCc3ccccc3)cc2)c1` (racemic) came in with a solubility (kinetic) of 17 µM (≈ 8.66 µg/mL). This compound also displayed a Papp in series [1] of 1.04 ×10⁻⁶ cm/s. In series [3], this compound registered an intrinsic metabolic clearance (microsomal CLint) of 17 µL/min/mg.

Regarding `CNC(=O)c1c[nH]c2ncnc(N[C@H](c3ccc4c(c3)S(=O)(=O)CCC4)C(C)C)c12` (single isomer, unassigned), the solubility (kinetic) was 336 µM and 204 µM. In series [1], the Papp is 1.61 ×10⁻⁶ cm/s and 0.857 ×10⁻⁶ cm/s. In addition, the pH-dependent lipophilicity (logD) in series [2] is 2.7 and 2.6. In series [3], the intrinsic metabolic clearance (microsomal CLint) was 258 µL/min/mg and 108 µL/min/mg.

For the compound `O=C(Nc1cc(Cl)cc(C(=O)Nc2cccc(-n3nn[nH]c3=O)c2)c1)OCc1ccccc1`, the kinetic solubility was 107 µM (≈ 49.7 µg/mL). The Papp in series [1] amounted to 9.46 ×10⁻⁶ cm/s. Moreover, in series [2], the logD turned out to be 3.8. In addition, the microsomal CLint in series [3] is 11.2 µL/min/mg.

For `O=C(O)c1cc(Cl)c(F)cc1S(=O)(=O)Nc1ccc(Oc2ccccc2Cl)cc1`, the kinetic solubility stood at 396 µM (≈ 181 µg/mL). Besides, the apparent permeability (Papp) in series [1] was found to be 4.29 ×10⁻⁶ cm/s. The same compound registered a pH-dependent lipophilicity (logD) in series [2] of 3.3. Moreover, in series [3], the intrinsic metabolic clearance (microsomal CLint) amounted to 67.4 µL/min/mg.

Regarding `O=C(Nc1ccc2c(c1)CNC2)c1cc(F)cc2[nH]ncc12`, the apparent permeability coefficient (Papp) in series [1] is 1.59 ×10⁻⁶ cm/s. Also, the microsomal CLint in series [4] came out at 180 µL/min/mg.

By kinetic solubility is commonly meant solubility judged after dilution from a stock solution rather than from solid. By Papp is commonly meant a coefficient for how fast a substance crosses the barrier. A higher Papp goes with fast passage. By logD is commonly meant the decadic logarithm of the distribution of all forms, ionised or not, between an organic phase and buffer at a given pH. As usually defined, the microsomal CLint is the capacity of the preparation to metabolise the compound, expressed as a volume cleared per time. A higher microsomal CLint goes with rapid turnover.
